Experiments:
[1] = disclosed in U.S. Pat. No. 9,045,474; cited from earlier work
human keratinocytes = test: lifespan of human keratinocytes with YEL002; format: cell-based; conditions: application of the active ingredient YEL002

For `COc1ccc2cc(-c3nc4ccc(C)cn4c3NCc3ccco3)c(=O)[nH]c2c1` [YEL002], the “mitigating tissue damage induced by an agent” value [1] is given as “effective in mitigating tissue damage” and the “human keratinocytes live longer (anti-aging)” value (human keratinocytes) is given as 15%.
